Measurements as given in patent EP1712550A2, “Substituted triazole diamine derivatives as kinase inhibitors” (priority 2000, dated 2002).

Columns and labels:
[1] = test system: HeLa cervical adenocarcinoma; assay: Inhibition of Cell Proliferation, 14C-thymidine incorporation, HeLa; assay type: cell-based; conditions: Homo sapiens; Cell Line HeLa
Experimental: (§1) The ability of a test compound to inhibit the proliferation of cell growth was determined by measuring incorporation of ^14C-labelled thymidine into newly synthesized DNA within the cells. This method was used on cell lines derived from carcinomas originating from several tissues such as HeLa cervical adenocarcinoma (American Type Culture Collection (ATCC), Virginia, Cat. #CCL-2), A375 malignant melanoma (ATCC CRL-1619), SK-OV-3 ovarian adenocarcinoma (ATCC HTB-77) HCT-116 colon carcinoma (CCL-247), PC-3 prostate adenocarcinoma (ATCC CRL-1435), and MDA-MB-231 (Xenogen Corp.) In this way the effect of a compound on cell growth of cells with many different phenotypes can be determined. Cells were trypsinized and counted and 3000-8000 cells were added to each well of a 96-well CytoStar tissue culture treated scintillating microplate (Amersham #RPNQ0160) in complete medium in a volume of 100 µl. Cells were incubated for 24 hours in complete medium at 37°C in an atmosphere containing 5% CO2. Next, 1 µl of test compound in 100% DMSO was added to the wells of the plate. DMSO only was added to control wells. Cells were incubated for 24 more hours in complete medium at 37°C in an atmosphere containing 5% CO2. Methyl^14C-thymidine 56 mCi/mmol (NEN #NEC568 or Amersham #CFA532) was diluted in complete medium and 0.2 uCi/well was added to each well of the CytoStar plate in a volume of 20 ul. The plate was incubated for 24 hours at 37°C plus 5% CO2 in drug plus ^14C-thymidine. The contents of the plate were discarded into a ^14C radioactive waste container by inverting the plate and the plate was washed twice with 200 µl PBS. 200 µl of PBS is added to each well. The top of the plate was sealed with a transparent plate sealer and a white plate backing sealer (Packard #6005199) was applied to the bottom of the plate. The degree of methyl ^14C-thymidine incorporation was quantified on a Packard Top Count.

A375 malignant melanoma = assay: Inhibition of Cell Proliferation, 14C-thymidine incorporation, A375; assay type: cell-based; conditions: Homo sapiens, A-375; Cell Line A375
Experimental: as §1

HCT-116 colon carcinoma = assay: Inhibition of Cell Proliferation, 14C-thymidine incorporation, HCT-116; assay type: cell-based; conditions: Homo sapiens; Cell Line HCT-116
Experimental: as §1

[2] = test system: PC-3 prostate adenocarcinoma; assay: Inhibition of Cell Proliferation, 14C-thymidine incorporation, PC-3; assay type: cell-based; conditions: Cell Line PC-3
Experimental: as §1

[3] = molecular target: T1, VEGF-R (vascular endothelial growth factor receptor-2) (Rattus norvegicus, UniProt O08775); assay: VEGF-R Screening Assay; assay type: biochemical; conditions: read-out: Kinase Assay (IC50 uM) VEGF-R
T1 construct: 6xHis (polyhistidine) (N)
Experimental: (§2) 70 µL of the kinase reaction mixture was dispensed into the well of a streptavidin coated FlashPlate™ (Cat. # SMP103, NEN, Boston, MA). Then 1 µL of test compound stock in 100% DMSO was added to the wells resulting in a final concentration of 1% DMSO in the reaction with a 100 µL final reaction volume. Next, soluble rat tyrosine kinase containing an N-terminal 6XHIS tag was diluted in 50 mM Tris-HCl pH=8.0, 0.1% BSA at a concentration of 5 ng per µL and 30 µL (150 ng enzyme per test well) was added to each well to initiate the reaction. The reaction was incubated for one hour at 30°C. At the end of the 1-hour incubation, the reaction was terminated by aspirating the reaction mixture from the plate and washing the wells twice with PBS containing 100 mM EDTA. The PLC1 biotinylated peptide substrate became immobilized on the Flashplate™ and the incorporation of ^33P-γ-ATP was measured by reading the plate on a scintillation counter. Inhibition of the enzymatic activity of the VEGF-R was measured by observing a reduced amount of ^33P-γ-ATP incorporated into the immobilized peptide. […]

[4] = molecular target: T2, HER2 (human epidermal growth factor receptor-2) (Homo sapiens, UniProt P04626); assay: Kinase Selectivity Assay HER2; assay type: biochemical; conditions: read-out: Kinase Assay (IC50 uM) HER2 Kinase
T2 construct: begins at amino acid 676 followed by the remainder of the HER2 cytoplasmic domain; polyhistidine (N)

[5] = molecular target: T3, EGFR (epidermal growth factor receptor) (Homo sapiens, UniProt P00533); assay: Kinase Selectivity Assay EGF-R; assay type: biochemical; conditions: read-out: Kinase Assay (IC50 uM) EGF-R
T3 construct: is purified from human A431 cell membranes (Sigma, St. Louis, MO, Cat.# E3641); purchased Sigma, St. Louis, MO E3641; host or cells: human A431 cell membranes (endogenous protein)

CDK1:Cyclin-B = molecular target: T4, CDK1:Cyclin-B (Homo sapiens, UniProt P06493); assay: CDK1 Screening Assay; assay type: biochemical; conditions: read-out: Kinase Assay (IC50 uM) CDK1
T4 construct: purchased New England Biolabs, Beverly, MA 6020; host or cells: insect cells
Experimental: as §2, with “100 µl” for “100 µL”, “Next, CDK1:Cyclin-B protein” for “Next, soluble rat tyrosine kinase containing an N-terminal 6XHIS tag”, “of 1” for “of 5”, “30 µl (30ng” for “30 µL (150 ng”, “The histone-H1” for “The PLC1”, “of CDK1” for “of the VEGF-R”

PKC (protein kinase-C) = assay: Kinase Selectivity Assay PKC; assay type: biochemical, human
Insulin Receptor Kinase = Insulin Receptor Kinase (Homo sapiens, UniProt P06213); assay: Kinase Selectivity Assay Insulin Receptor Kinase; assay type: biochemical; conditions: read-out: Kinase Assay (IC50 uM) Insulin R Kinase
[6] = molecular target: T5, CDK2 in complex with cyclin A (Homo sapiens, UniProt P24941); assay: Kinase Selectivity Assay CDK2; assay type: biochemical
T5 construct: purchased Upstate Biotech, Lake Placid, NY

T1 sequence (O08775 786-1343): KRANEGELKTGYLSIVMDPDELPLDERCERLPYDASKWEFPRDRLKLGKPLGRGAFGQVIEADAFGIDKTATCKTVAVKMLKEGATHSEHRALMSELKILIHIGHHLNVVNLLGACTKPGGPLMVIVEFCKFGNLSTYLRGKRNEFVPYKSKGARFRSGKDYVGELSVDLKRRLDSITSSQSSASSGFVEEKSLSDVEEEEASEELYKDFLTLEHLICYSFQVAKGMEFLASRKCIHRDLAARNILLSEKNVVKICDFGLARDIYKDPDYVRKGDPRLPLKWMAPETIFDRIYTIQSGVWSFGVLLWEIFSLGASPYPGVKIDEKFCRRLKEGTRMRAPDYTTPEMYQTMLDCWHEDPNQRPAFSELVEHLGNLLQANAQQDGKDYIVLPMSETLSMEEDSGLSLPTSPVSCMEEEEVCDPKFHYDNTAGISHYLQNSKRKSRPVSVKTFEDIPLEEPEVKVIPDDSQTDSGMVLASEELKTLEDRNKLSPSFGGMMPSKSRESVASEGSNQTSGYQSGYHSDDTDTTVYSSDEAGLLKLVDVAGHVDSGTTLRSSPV
T3 sequence (P00533 25-1210): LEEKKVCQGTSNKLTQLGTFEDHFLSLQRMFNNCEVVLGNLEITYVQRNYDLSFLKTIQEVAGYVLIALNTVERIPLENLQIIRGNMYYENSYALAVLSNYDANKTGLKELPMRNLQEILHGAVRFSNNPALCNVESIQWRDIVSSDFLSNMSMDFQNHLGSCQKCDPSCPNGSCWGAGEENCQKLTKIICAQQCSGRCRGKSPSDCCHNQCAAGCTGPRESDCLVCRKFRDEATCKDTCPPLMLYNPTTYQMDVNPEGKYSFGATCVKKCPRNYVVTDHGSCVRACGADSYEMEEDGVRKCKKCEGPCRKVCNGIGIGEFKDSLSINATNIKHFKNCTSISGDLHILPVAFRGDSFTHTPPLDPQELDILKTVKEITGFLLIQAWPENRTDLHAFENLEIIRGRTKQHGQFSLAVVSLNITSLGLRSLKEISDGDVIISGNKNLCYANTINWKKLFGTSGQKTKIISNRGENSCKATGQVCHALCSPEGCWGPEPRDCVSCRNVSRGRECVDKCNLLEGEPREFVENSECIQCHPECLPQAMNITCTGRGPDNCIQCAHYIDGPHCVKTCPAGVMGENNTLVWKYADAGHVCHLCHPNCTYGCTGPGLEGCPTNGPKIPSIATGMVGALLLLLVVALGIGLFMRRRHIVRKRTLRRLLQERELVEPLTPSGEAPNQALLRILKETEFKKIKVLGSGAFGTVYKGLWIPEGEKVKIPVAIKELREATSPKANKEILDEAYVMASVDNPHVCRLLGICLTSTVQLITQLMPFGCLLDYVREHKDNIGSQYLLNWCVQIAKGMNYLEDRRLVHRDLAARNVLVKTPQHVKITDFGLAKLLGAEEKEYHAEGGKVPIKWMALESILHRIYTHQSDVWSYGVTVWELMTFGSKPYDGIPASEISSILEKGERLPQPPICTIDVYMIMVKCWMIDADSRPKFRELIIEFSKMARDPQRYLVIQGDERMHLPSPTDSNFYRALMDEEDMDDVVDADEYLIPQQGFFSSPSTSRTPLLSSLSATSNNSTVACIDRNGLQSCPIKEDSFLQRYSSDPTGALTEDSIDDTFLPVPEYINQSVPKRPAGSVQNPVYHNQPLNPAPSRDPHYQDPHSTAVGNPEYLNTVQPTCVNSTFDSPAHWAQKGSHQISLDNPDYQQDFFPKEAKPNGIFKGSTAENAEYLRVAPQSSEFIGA
T2 sequence (P04626 676-1255 limits assumed): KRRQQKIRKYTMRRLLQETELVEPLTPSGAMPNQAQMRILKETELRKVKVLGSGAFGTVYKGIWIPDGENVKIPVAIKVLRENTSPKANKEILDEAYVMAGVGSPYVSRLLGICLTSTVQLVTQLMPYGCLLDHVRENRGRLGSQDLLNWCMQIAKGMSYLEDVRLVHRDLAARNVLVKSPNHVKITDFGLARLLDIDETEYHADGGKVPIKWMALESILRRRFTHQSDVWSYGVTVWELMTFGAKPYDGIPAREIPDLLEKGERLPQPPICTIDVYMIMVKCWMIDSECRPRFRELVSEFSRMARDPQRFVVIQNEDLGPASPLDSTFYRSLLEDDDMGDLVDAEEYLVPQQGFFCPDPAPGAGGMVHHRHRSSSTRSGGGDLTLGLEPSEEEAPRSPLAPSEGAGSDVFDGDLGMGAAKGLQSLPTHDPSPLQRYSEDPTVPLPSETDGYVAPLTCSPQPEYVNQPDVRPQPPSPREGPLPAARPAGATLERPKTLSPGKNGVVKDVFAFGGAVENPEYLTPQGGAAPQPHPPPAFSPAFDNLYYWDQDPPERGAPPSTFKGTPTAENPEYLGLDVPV
T4 sequence (P06493 whole entry): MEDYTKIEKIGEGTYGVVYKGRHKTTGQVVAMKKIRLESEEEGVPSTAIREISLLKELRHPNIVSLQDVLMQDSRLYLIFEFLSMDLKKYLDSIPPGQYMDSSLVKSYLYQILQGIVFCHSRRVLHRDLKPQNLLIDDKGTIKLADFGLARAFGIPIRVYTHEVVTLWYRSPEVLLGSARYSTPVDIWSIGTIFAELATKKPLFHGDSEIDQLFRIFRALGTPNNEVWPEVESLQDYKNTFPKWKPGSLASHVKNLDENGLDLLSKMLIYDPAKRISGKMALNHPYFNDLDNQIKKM
T4 sequence (P14635 whole entry partner): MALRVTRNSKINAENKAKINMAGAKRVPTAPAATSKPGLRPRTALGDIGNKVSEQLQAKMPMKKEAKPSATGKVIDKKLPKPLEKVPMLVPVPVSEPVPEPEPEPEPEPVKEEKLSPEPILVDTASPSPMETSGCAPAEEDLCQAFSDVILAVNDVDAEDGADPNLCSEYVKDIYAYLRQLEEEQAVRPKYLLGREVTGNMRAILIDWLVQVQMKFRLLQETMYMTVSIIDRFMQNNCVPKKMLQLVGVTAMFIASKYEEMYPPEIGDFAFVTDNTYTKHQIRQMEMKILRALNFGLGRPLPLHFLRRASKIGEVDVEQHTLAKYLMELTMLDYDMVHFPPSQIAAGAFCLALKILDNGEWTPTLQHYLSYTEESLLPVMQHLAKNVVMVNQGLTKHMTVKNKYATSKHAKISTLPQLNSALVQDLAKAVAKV
Sequence of Insulin Receptor Kinase (P06213 980-1352): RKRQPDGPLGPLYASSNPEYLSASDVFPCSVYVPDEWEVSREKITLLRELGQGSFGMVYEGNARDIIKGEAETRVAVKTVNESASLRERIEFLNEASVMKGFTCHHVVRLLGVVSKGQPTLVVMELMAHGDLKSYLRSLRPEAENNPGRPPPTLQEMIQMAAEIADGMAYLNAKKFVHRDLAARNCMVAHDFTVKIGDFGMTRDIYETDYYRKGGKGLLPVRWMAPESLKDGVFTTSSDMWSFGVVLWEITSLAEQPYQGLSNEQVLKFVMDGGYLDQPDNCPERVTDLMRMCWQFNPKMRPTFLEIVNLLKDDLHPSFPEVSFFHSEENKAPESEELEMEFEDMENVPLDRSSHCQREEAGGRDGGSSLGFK

SMILES	IC50 [3] [µM]	IC50 [4] [µM]	IC50 [5] [µM]	IC50 (CDK1:Cyclin-B) [µM]	also measured
Cc1ccsc1C(=O)n1nc(Nc2ccc(S(N)(=O)=O)cc2)nc1N [Cpd 15, 4-[[5-amino-1-[(3-methyl-2-thienyl)carbonyl]-1H-1,2,4-triazol-3-yl]amino]-benzenesulfonamide]	–	–	–	–	IC50 [1]: 91 nM; IC50 (A375 malignant melanoma): 247 nM; IC50 (HCT-116 colon carcinoma): 127 nM; IC50 [2]: 107 nM
Nc1nc(Nc2ccc(S(N)(=O)=O)cc2)nn1C(=S)Nc1c(F)cccc1F [Cpd 66, 5-amino-3-[[4-(aminosulfonyl)phenyl]amino]-N-(2,6-difluorophenyl)-1H-1,2,4-triazole-1-carbothioamide]	–	–	–	–	IC50 [1]: 35 nM; IC50 (A375 malignant melanoma): 92 nM; IC50 (HCT-116 colon carcinoma): 20 nM
Cc1ccc(F)c(C(=O)n2nc(Nc3ccc(S(N)(=O)=O)cc3)nc2N)c1Cl [Cpd 69, 4-[[5-amino-1-(2-chloro-6-fluoro-3-methylbenzoyl)-1H-1,2,4-triazol-3-yl]amino]-benzenesulfonamide]	0.685	0.139	> 100	–	IC50 [2]: 8 nM
CNS(=O)(=O)c1ccc(Nc2nc(N)n(C(=O)c3c(F)ccc(C)c3F)n2)cc1 [Cpd 81, 4-[[5-amino-1-(2,6-difluoro-3-methylbenzoyl)-1H-1,2,4-triazol-3-yl]amino]-N-methyl-benzenesulfonamide]	0.482	1.7	> 100	0.018	–
Cc1ccsc1C(=O)n1nc(Nc2ccc(-n3cncn3)cc2)nc1N [Cpd 99, 1-[(3-methyl-2-thienyl)carbonyl]-N^3-[4-(1H-1,2,4-triazol-1-yl)phenyl]-1H-1,2,4-triazole-3,5-diamine]	–	0.095	> 100	0.366	IC50 (PKC (protein kinase-C)): > 100 µM
Cc1ccc(F)c(C(=O)n2nc(Nc3ccc(S(=O)(=O)NCCN(C)C)cc3)nc2N)c1F [Cpd 105, 4-[[5-amino-1-(2,6-difluoro-3-methylbenzoyl)-1H-1,2,4-triazol-3-yl]amino]-N-[2-(dimethylamino)ethyl]-benzenesulfonamide]	0.276	0.845	9.6	0.046	–
Cc1cc(C)c(C(=O)n2nc(Nc3ccc(S(=O)(=O)NCCN(C)C)cc3)nc2N)s1 [Cpd 107, 4-[[5-amino-1-[(3,5-dimethyl-2-thienyl)carbonyl]-1H-1,2,4-triazol-3-yl]amino]-N-[2-(dimethylamino)ethyl]-benzenesulfonamide]	0.032	0.03	0.936	0.014	–
Cc1cc(C)c(C(=O)n2nc(Nc3ccc(NS(C)(=O)=O)cc3)nc2N)s1 [Cpd 108, N-[4-[[5-amino-1-[(3,5-dimethyl-2-thienyl)carbonyl]-1H-1,2,4-triazol-3-yl]amino]phenyl]-methanesulfonamide]	–	–	> 100	–	IC50 (Insulin Receptor Kinase): 0.81 µM; IC50 [1]: 221 nM; IC50 (A375 malignant melanoma): 259 nM; IC50 (HCT-116 colon carcinoma): 76 nM
Cc1ccsc1C(=O)n1nc(Nc2ccc(NS(C)(=O)=O)cc2)nc1N [Cpd 109, N-[4-[[5-amino-1-[(3-methyl-2-thienyl)carbonyl]-1H-1,2,4-triazol-3-yl]amino]phenyl]-methanesulfonamide]	0.025	0.17	> 100	0.147	–
Cc1ccc(F)c(C(=O)n2nc(Nc3ccc(N4CCNC4=O)cc3)nc2N)c1F [Cpd 114, 1-[4-[[5-amino-1-(2,6-difluoro-3-methylbenzoyl)-1H 1,2,4-triazol-3-yl]amino]phenyl]-2-imidazolidinone]	0.313	1.39	> 100	0.228	–
Nc1nc(Nc2ccc(N3CCNC3=O)cc2)nn1C(=O)c1c(F)cccc1F [Cpd 115, 1-[4-[[5-axnino-1-(2,6-difluorobenzoyl)-1H-1,2,4-triazol-3-yl]amino]phenyl]-2-imidazolidinone]	0.467	1.44	> 10	0.313	–
Nc1nc(Nc2ccc(N3CCCS3(=O)=O)cc2)nn1C(=O)c1c(F)cccc1F [Cpd 117, 1-(2,6-difluorobenzoyl)-N^3-[4-(1,1-dioxido-2-isothiazolidinyl)phenyl]-1H-1,2,4-triazole-3,5-diamine]	–	5.44	> 100	0.035	–
CCc1ccc(C(=O)n2nc(Nc3ccc(S(=O)(=O)Nc4ccccn4)cc3)nc2N)s1 [Cpd 119, 4-[[5-amino-1-[(5-ethyl-2-thienyl)carbonyl]-1H-1,2,4-triazol-3-yl]amino]-N-(2-pyridinyl)-benzenesulfonamide]	0.057	–	–	0.067	IC50 (PKC (protein kinase-C)): > 100 µM; IC50 [1]: 146 nM; IC50 (A375 malignant melanoma): 199 nM; IC50 (HCT-116 colon carcinoma): 117 nM
Cc1ccsc1C(=O)n1nc(Nc2ccc(S(=O)(=O)Nc3ccccn3)cc2)nc1N [Cpd 121, 4-[[5-amino-1-[(3-methyl-2-thienyl)carbonyl]-1H-1,2,4-triazol-3-yl]amino]-N-(2-pyridinyl)-benzenesulfonamide]	0.027	0.717	> 10	0.099	–
Nc1nc(Nc2cccc(Cl)c2)n(C(=O)c2c(F)cccc2F)n1 [Cpd 126, N^5-(3-chlorophenyl)-1-(2,6-difluorobenzoyl)-1H-1,2,4-triazole-3,5-diamine]	–	–	–	–	IC50 [6]: > 100 µM
Nc1nc(Nc2cccc(Cl)c2)n(C(=O)c2ccccc2)n1 [Cpd 127, 1-benzoyl-N^5-(3-chlorophenyl)-1H-1,2,4-triazole-3,5-diamine]	–	–	–	–	IC50 [6]: > 100 µM
Nc1nc(Nc2ccc(S(N)(=O)=O)cc2)n(C(=S)Nc2c(F)cccc2F)n1 [Cpd 128, 3-amino-5-[[4-(aminosulfonyl)phenyl]amino]-N-(2,6-difluorophenyl)-1H-1,2,4-triazole-1-carbothioamide]	–	0.11	> 100	–	IC50 [1]: 128 nM; IC50 (A375 malignant melanoma): 968 nM; IC50 (HCT-116 colon carcinoma): 910 nM
